According to paper PMC10508264, “Exploring the antioxidant, antimicrobial, cytotoxic and biothermodynamic properties of novel morpholine derivative bioactive Mn(II), Co(II) and Ni(II) complexes – combined experimental and theoretical measurements towards DNA/BSA/SARS-CoV-2 3CL^Pro” (RSC Medicinal Chemistry, 2023):

Assays:
[1] = tested on: DNA; test: DNA cleavage by gel electrophoresis under H2O2; assay type: biochemical; conditions: H2O2 environment
Text: In a cellular system, DNA base pairs can be broken by a variety of mechanisms, including errors in DNA replication, generation of a heteroduplex during homologous recombination, spontaneous deamination of cytosine, and base pairs broken by mutagens or ionizing radiation, which also lead to improper base pairing and mutations. Also, metal complexes have the capability of recognizing DNA mismatches and may become vital entities for investigation and possibly for clinical applications.[55] Moreover, the cleavage of one or both DNA strands is a typical and essential process for maintaining cell viability: during DNA replication and transcription, topoisomerase enzymes correct topological issues, and various nucleases take part in repair mechanisms and DNA degradation, which is one of the distinguishing features of apoptotic programmed cell death. Similarly, several antitumor drugs have the potential to cleave DNA by inducing apoptosis, which eventually leads to cancer cell death. Conversely, molecules that can interact with DNA's major or minor grooves are known as groove-binding molecules, which disrupt and impair the function of the DNA double helix via various non-covalent interactions. The DNA nuclease properties of all samples were assessed in an H2O2 environment by the gel electrophoresis method. DNA cleavage was monitored during the conversion of supercoiled plasmids into linear and nicked DNA fragments. Also, the observed DNA nuclease efficacy for all complexes (1–3) was compared with the free ligand (HL) and CT-DNA alone. No substantial nuclease activity can be seen in the control (Fig. 1 and S13 ^†) (lane 1; DNA + H2O2) even after a lot of time has passed, and free ligand (HL) (lane 2) was monitored as immobile in an H2O2 environment. […] Consequently, it is commonly acknowledged that ROS plays a dual physiological role in controlling a variety of illnesses as well as cellular homeostasis (self-regulating processes like thermoregulation, blood glucose regulation, calcium/potassium homeostasis, and osmoregulation).[56] […] Additionally, it is widely known that the NADPH oxidase enzyme produces reactive oxygen species as part of its antibacterial effect on phagocytic cells. Nevertheless, these types of enzyme seem to be present in a variety of other cells and may have significant signalling pathway functions. When non-carcinogenic toxicity events occur, ROS has the ability to alter cell function as well as to affect the genesis of cancer at several levels. OH˙ can attack DNA, proteins, and lipids due to its high reactivity among ROS. Also, the hydroxyl radical is a key participant in free-radical-mediated hazardous reactions because of its great reactivity. […]

[2] = tested on: Mucor indicus; test: Agar disc diffusion, strain J; assay type: cell-based; parameters: Inhibition%: concentration or dose not given beside the values; conditions: for Diameter of clear zone inhibition: control 6 mm
[3] = target: BSA (Bos taurus, UniProt P02769); assay type: binding, bovine; conditions: for Δλ (nm), blue shift of BSA band: 25 μM BSA, compound 0–25 μM; for Binding constant Kapp by BH method (Kb, BSA): 25 °C; for Gibb's free energy change of BSA binding: T = 298 K
[4] = tested on: Escherichia coli; test: Agar disc diffusion, strain A; assay type: cell-based; parameters: Inhibition%: concentration or dose not given beside the values; conditions: for Diameter of clear zone inhibition: control (DMSO) 6 mm
[5] = tested on: Salmonella enterica serovar typhi; test: Agar disc diffusion, strain C; assay type: cell-based; conditions: for Diameter of clear zone inhibition: control 6 mm
[6] = tested on: CT-DNA; test: DNA thermal denaturation / biothermodynamic properties; assay type: binding; conditions: for Tm of DNA–substance adduct: 1:1 ratio (50 μM), free CT-DNA 68 °C; for Binding constant Kr @ 298 K: 25 °C (298 K); for ΔTm: adduct vs CT-DNA alone

| Compound | DNA cleavage [1] | Inhibition% [2] | Diameter of clear zone inhibition [2] | Δλ (nm), blue shift of BSA band [3] | Binding constant Kapp by BH method (Kb, BSA) [3] | Gibb's free energy change of BSA binding [3] | Inhibition% [4] | Diameter of clear zone inhibition [4] | Inhibition% [5] | Diameter of clear zone inhibition [5] | Tm of DNA–substance adduct [6] | Binding constant ([6]; 10 °C (283 K)) | Binding constant Kr @ 298 K [6] | Binding constant ([6]; 40 °C (313 K)) | ΔTm [6] |
| --- | --- | --- | --- | --- | --- | --- | --- | --- | --- | --- | --- | --- | --- | --- | --- |
| [Mn+2].[O-]c1ccccc1N=Cc1ccc(N2CCOCC2)cc1.[O-]c1ccccc1N=Cc1ccc(N2CCOCC2)cc1.c1ccc(-c2ccccn2)nc1 [(1)] | no considerable cleavage efficiency | 45% | 11 mm | 03 nm | 12429 M⁻¹ | -5.5827 kcal/mol | 40% | 10 mm | 40% | 10 mm | 76 °C | 72350 M⁻¹ | 18195 M⁻¹ | 7732.1 M⁻¹ | 8 °C |
| [Co+2].[O-]c1ccccc1N=Cc1ccc(N2CCOCC2)cc1.[O-]c1ccccc1N=Cc1ccc(N2CCOCC2)cc1.c1ccc(-c2ccccn2)nc1 [(2)] | complete DNA cleavage | 45% | 11 mm | 02 nm | 30937 M⁻¹ | -6.12271 kcal/mol | 40% | 10 mm | 40% | 10 mm | 78 °C | 98820 M⁻¹ | 18806 M⁻¹ | 8043.3 M⁻¹ | 10 °C |
| [Ni+2].[O-]c1ccccc1N=Cc1ccc(N2CCOCC2)cc1.[O-]c1ccccc1N=Cc1ccc(N2CCOCC2)cc1.c1ccc(-c2ccccn2)nc1 [(3)] | partial DNA cleavage | 54% | 13 mm | 02 nm | 18374 M⁻¹ | -5.81417 kcal/mol | 50% | 12 mm | 45% | 11 mm | 77 °C | 91140 M⁻¹ | 18207 M⁻¹ | 7879.7 M⁻¹ | 9 °C |
| Oc1ccccc1N=Cc1ccc(N2CCOCC2)cc1 [(HL), 2-(4-morpholinobenzylideneamino)phenol] | immobile | 45% | 11 mm | 02 nm | 7556 M⁻¹ | -5.28791 kcal/mol | 33% | 09 mm | 45% | 11 mm | 74 °C | 52575 M⁻¹ | 15169 M⁻¹ | 6067.4 M⁻¹ | 6 °C |
